What all share (format): in vivo
Assay [1] deals with Alopecurus myosuroides (ALOMY). In words: Example B pre-emergence herbicidal activity. The following applies: 312 h, rate 250 g/ha, evaluated after 13 days, read-out: Pre-Emergence Activity ALOMY (100=total damage to plant; 0=no damage to plant). The procedure, abridged:
(§1)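 Glasshouse pot test, 24/16 °C, 14 h light, 65% RH, watered twice daily. Spray timing: day 1 pre-em., day 8 post-em.; vehicle acetone/water 50:50 + 0.5% Tween 20. Readout 13 d, 0–100% damage.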

Assay [2] deals with Amaranthus retoflexus (AMARE). The assay is described as follows: Example B pre-emergence herbicidal activity. The following applies: Amaranthus retroflexus, 312 h, rate 250 g/ha, evaluated after 13 days, read-out: Pre-Emergence Activity AMARE (100=total damage to plant; 0=no damage to plant). In a few lines: as §1
The test system of assay [3] is Avena fatua (AVEFA). The assay is described as follows: Example B pre-emergence herbicidal activity. The following applies: 312 h, rate 250 g/ha, evaluated after 13 days, read-out: Pre-Emergence Activity AVEFA (100=total damage to plant; 0=no damage to plant). In a few lines:
as §1

The subject of assay [4] is Echinochloa crus-galli (ECHCG). The assay is described as follows: Example B pre-emergence herbicidal activity. The following applies: 312 h, rate 250 g/ha, evaluated after 13 days, read-out: Pre-Emergence Activity ECHCG (100=total damage to plant; 0=no damage to plant). In a few lines: as §1
Assay [5] relates to Setaria faberi (SETFA). In words: Example B pre-emergence herbicidal activity. As to conditions: 312 h, rate 250 g/ha, evaluated after 13 days, read-out: Pre-Emergence Activity SETFA (100=total damage to plant; 0=no damage to plant). The procedure, abridged: as §1
For assay [6], the system named is Alopecurus myosuroides (ALOMY). The assay is described as follows: Example B post-emergence herbicidal activity. As to conditions: 312 h, rate 250 g/ha, evaluated after 13 days, read-out: Post-emergence activity ALOMY (100=total damage to plant; 0=no damage to plant). In a few lines:
as §1

For assay [7], the system named is Amaranthus retoflexus (AMARE). In words: Example B post-emergence herbicidal activity. The following applies: Amaranthus retroflexus, 312 h, rate 250 g/ha, evaluated after 13 days, read-out: Post-emergence activity AMARE (100=total damage to plant; 0=no damage to plant). In a few lines: as §1
In assay [8] the test system is Avena fatua (AVEFA). In words: Example B post-emergence herbicidal activity. As to conditions: 312 h, rate 250 g/ha, evaluated after 13 days, read-out: Post-emergence activity AVEFA (100=total damage to plant; 0=no damage to plant). In a few lines: as §1
For assay [9], the system named is Echinochloa crus-galli (ECHCG). In words: Example B post-emergence herbicidal activity. The following applies: 312 h, rate 250 g/ha, evaluated after 13 days, read-out: Post-emergence activity ECHCG (100=total damage to plant; 0=no damage to plant). In a few lines: as §1
Assay [10] deals with Setaria faberi (SETFA). In words: Example B post-emergence herbicidal activity. As to conditions: 312 h, rate 250 g/ha, evaluated after 13 days, read-out: Post-emergence activity SETFA (100=total damage to plant; 0=no damage to plant). In a few lines: as §1

For `Cc1sc(-c2cc(Cl)ccc2Cl)nc1C1C(=O)[C@@H]2CC[C@@H](C2)C1=O` (stereo partly shown) [Compound T73], the pest or weed control at 250 g/ha came to 0% in assay [1]; 0% in assay [2]; 50% in the assay with Avena fatua (AVEFA) [3]; 0% in [4]; 0% in the assay with Setaria faberi (SETFA) [5]; 0% in assay [6]. The pest or weed control at 250 g/ha amounted to 0% in assay [7], 0% with Avena fatua (AVEFA) [8], 20% in [9] and 30% in the assay with Setaria faberi (SETFA) [10].

Consider `Cc1cc(Br)ccc1-c1nc(C2=C(OC(=O)C(C)(C)C)[C@@H]3CC[C@@H](C3)C2=O)c(C)s1` [Compound P14], for which the pest or weed control at 250 g/ha in assay [1] was 70%; in [2], 0%; in the assay on Avena fatua (AVEFA) [3], 100%; in [4] it was 100%; with Setaria faberi (SETFA) [5], 100%; in [6] it was 100%. Besides, the pest or weed control at 250 g/ha in assay [7] amounted to 0%; in the assay on Avena fatua (AVEFA) [8], 90%; in assay [9], 100%; with Setaria faberi (SETFA) [10], 100%.

Turning to `CCc1sc(-c2ccc(C)cc2)nc1C1C(=O)[C@@H]2CC[C@@H](C2)C1=O` (stereo partly shown) [Compound T54], the pest or weed control at 250 g/ha in [1] was found to be 90%; in [2], 0%; with Avena fatua (AVEFA) [3], 70%; in assay [4] it was 100%; with Setaria faberi (SETFA) [5], 60%; in assay [6], 100%. In addition, the pest or weed control at 250 g/ha in assay [7] came to 30%; with Avena fatua (AVEFA) [8], 90%; in assay [9], 100%; in the assay on Setaria faberi (SETFA) [10], 100%.

As to `CCc1sc(-c2ccc(Cl)cc2)nc1C1=C(OC(=C(C#N)C#N)C(F)(F)F)[C@@H]2CC[C@@H](C2)C1=O` [Compound P9], the pest or weed control at 250 g/ha in assay [1] was 90%; in [2], 0%; in the assay on Avena fatua (AVEFA) [3], 100%; in assay [4], 90%; with Setaria faberi (SETFA) [5], 100%; in assay [6] it was 100%. Besides, the pest or weed control at 250 g/ha in assay [7] stood at 0%; in the assay with Avena fatua (AVEFA) [8] it was 100%; in assay [9] it was 100%; with Setaria faberi (SETFA) [10], 100%.

For `Cc1sc(-c2ccc(F)cc2)nc1C1C(=O)[C@@H]2CC[C@@H](C2)C1=O` (stereo partly shown) [Compound T57], the pest or weed control at 250 g/ha in assay [1] was 60%; in assay [2] it was 0%; in the assay with Avena fatua (AVEFA) [3] it was 20%; in assay [4], 90%; in the assay on Setaria faberi (SETFA) [5] it was 90%; in [6], 70%. The pest or weed control at 250 g/ha was 0% in [7], 60% in the assay on Avena fatua (AVEFA) [8], 100% in assay [9] and 100% in the assay on Setaria faberi (SETFA) [10].

As to `CCOC(=O)COC1=C(c2sc(-c3ccc(Cl)cc3)nc2C)C(=O)[C@H]2CC[C@@H]1C2` [Compound P11], the pest or weed control at 250 g/ha came out at 0% in assay [1]; 0% in assay [2]; 0% in the assay with Avena fatua (AVEFA) [3]; 0% in assay [4]; 80% in the assay with Setaria faberi (SETFA) [5]; 20% in assay [6]. Besides, the pest or weed control at 250 g/ha in [7] amounted to 0%; in the assay with Avena fatua (AVEFA) [8], 20%; in assay [9], 80%; in the assay with Setaria faberi (SETFA) [10], 80%.

As to `Cc1sc(-c2ccc(Br)cn2)nc1C1=C(OC(=O)C2CC2)[C@@H]2CC[C@@H](C2)C1=O` [Compound P7], the pest or weed control at 250 g/ha was 30% in assay [1]; 0% in assay [2]; 0% in the assay with Avena fatua (AVEFA) [3]; 20% in assay [4]; 90% in the assay with Setaria faberi (SETFA) [5]; 90% in assay [6]. Moreover, the pest or weed control at 250 g/ha in assay [7] came to 0%; in the assay with Avena fatua (AVEFA) [8] it was 90%; in assay [9], 100%; with Setaria faberi (SETFA) [10], 100%.

For the compound `CCc1sc(-c2ccc(Cl)cc2Br)nc1C1C(=O)[C@@H]2CC[C@@H](C2)C1=O` (stereo partly shown) [Compound T51], the pest or weed control at 250 g/ha in assay [1] is 80%; in assay [2], 0%; in the assay on Avena fatua (AVEFA) [3], 20%; in assay [4], 100%; with Setaria faberi (SETFA) [5], 100%; in assay [6], 100%. For the same compound, the pest or weed control at 250 g/ha in assay [7] was determined as 0%; in the assay on Avena fatua (AVEFA) [8], 100%; in [9], 100%; in the assay on Setaria faberi (SETFA) [10], 100%.

Turning to `CCc1sc(-c2ccccc2Cl)nc1C1C(=O)[C@@H]2CC[C@@H](C2)C1=O` (stereo partly shown) [Compound T106], the pest or weed control at 250 g/ha was found to be 0% in assay [1]; 0% in [2]; 0% with Avena fatua (AVEFA) [3]; 10% in assay [4]; 20% in the assay on Setaria faberi (SETFA) [5]; 10% in assay [6]. For the same compound, the pest or weed control at 250 g/ha in [7] is 0%; in the assay on Avena fatua (AVEFA) [8], 0%; in assay [9], 30%; in the assay on Setaria faberi (SETFA) [10] it was 70%.

Consider `Cc1sc(-c2ccc(Br)cn2)nc1C1=C(OC(=O)C(C)(C)C)[C@@H]2CC[C@@H](C2)C1=O` [Compound P8], for which the pest or weed control at 250 g/ha in assay [1] came to 20%; in assay [2] it was 0%; in the assay with Avena fatua (AVEFA) [3] it was 0%; in [4], 50%; in the assay on Setaria faberi (SETFA) [5], 100%; in assay [6], 70%. Moreover, the pest or weed control at 250 g/ha in [7] came to 0%; with Avena fatua (AVEFA) [8], 80%; in assay [9] it was 0%; in the assay with Setaria faberi (SETFA) [10] it was 100%.

In the case of `CCc1sc(-c2ccc(Br)cc2F)nc1C1C(=O)[C@@H]2CC[C@@H](C2)C1=O` (stereo partly shown) [Compound T33], the pest or weed control at 250 g/ha in assay [1] was 90%; in assay [2], 0%; with Avena fatua (AVEFA) [3], 50%; in assay [4] it was 100%; with Setaria faberi (SETFA) [5], 100%; in [6] it was 100%. Besides, the pest or weed control at 250 g/ha in [7] turned out to be 0%; in the assay on Avena fatua (AVEFA) [8], 100%; in assay [9], 100%; in the assay with Setaria faberi (SETFA) [10], 100%.

`CCc1sc(-c2ccc(Cl)cc2F)nc1C1C(=O)[C@@H]2CC[C@@H](C2)C1=O` (stereo partly shown) [Compound T26]: the pest or weed control at 250 g/ha in [1] amounted to 90%; in assay [2], 0%; in the assay with Avena fatua (AVEFA) [3], 60%; in [4], 100%; in the assay on Setaria faberi (SETFA) [5] it was 100%; in assay [6], 100%. The pest or weed control at 250 g/ha in assay [7] was 40%; in the assay on Avena fatua (AVEFA) [8], 100%; in assay [9], 100%; in the assay on Setaria faberi (SETFA) [10] it was 100%.

As to `Cc1sc(-c2ccc(I)cc2)nc1C1C(=O)[C@@H]2CC[C@@H](C2)C1=O` (stereo partly shown) [Compound T30], the pest or weed control at 250 g/ha turned out to be 90% in assay [1]; 20% in assay [2]; 100% in the assay with Avena fatua (AVEFA) [3]; 100% in [4]; 100% in the assay on Setaria faberi (SETFA) [5]; 100% in assay [6]. Moreover, the pest or weed control at 250 g/ha in [7] stood at 0%; in the assay with Avena fatua (AVEFA) [8], 100%; in assay [9] it was 100%; in the assay on Setaria faberi (SETFA) [10], 100%.

Values taken from patent US8598365B2, “Herbicides” (Syngenta Limited, priority 2007, dated 2013).
